The text below walks through data of patent publication EP3033337B1, “SUBSTITUTED IMIDAZOLES AS N-TYPE CALCIUM CHANNEL BLOCKERS” (Janssen Pharmaceutica NV, priority 2013, dated 2015).

In general, IC50 refers to the concentration that inhibits the measured activity by half. Usually inhibition stands for the drop in the measured response relative to a control, in per cent.

Where two headings read alike, the source gives them in different places. Some results are limits rather than exact numbers.

The test system of assay [1] is CFA-induced mechanical allodynia. Kind of assay: Complete Freund's Adjuvant (CFA) induced mechanical allodynia, Von Frey test. The assay is classed as in vivo. The protocol:
Animals arrived and were acclimatized for 1-2 weeks in a temperature-controlled room with a 12 h light/dark cycle and allowed free access to standard laboratory chow and water.
CFA (Sigma) was injected intra-plantar (75 µg/150 µL) from a concentration of 1:1 (diluted 1 mg/ mL of CFA in 1 mL ofPBS). CFA-induced mechanical allodynia was quantified by a Von frey test on day 2 (48 h post injection of CFA) and animals were randomized based on iPWT response (Dixon 1980). […] Animals were administered a compound of Formula (I) through appropriate route based on their pharmacokinetic properties. Responses were measured with a Von-Frey filament. The maximum possible effect (% MPE) was determined as 100% if sensitivity in ipsilateral paw neared that of the contralateral paw. Values from the vehicle-treated animals were considered 0%. The compound effect was determined based on these values.

In assay [2] the test system is Rats. Nature of the assay: Sciatic nerve ligation (SNL) model of neuropathic pain, L5/L6 spinal nerve ligation, von Frey filaments. The assay is classed as in vivo. The conditions noted are these: response at Tmax. The text has this:
Left L5 and L6 spinal nerves are isolated adjacent to the vertebral column and were ligated with 5-0 silk suture distal to the dorsal root ganglion, as described by Kim and Chung (1992). The incision was closed with the help of GLUture topical tissue adhesive. At 14 days post-surgery (one day prior to test compound administration), mechanical allodynia was quantified using eight von Frey filaments, calibrated in the range 0.4-15.1 g (Nielsen et al 2005). Rats were placed into individual plastic containers on top of a suspended wire mesh grid and acclimated to the test chambers for at least 15 min. Filaments were applied perpendicular to the mid-plantar paw surface, with enough force to cause slight buckling, and held in place for 6-8 sec until a response was noted as a sharp paw withdrawal, flinching, licking and/or biting immediately upon removal of the filament (Nielsen et al 2005). […] Test compounds of Formula (I) were administered and a response was measured at Tmax. The maximum possible effect (% MPE) was determined to be 100% if the sensitivity in the ipsilateral paw neared that of the contralateral paw. Values from vehicle-treated animals were considered 0 %. The compound effect was determined based on these values.

Assay [3] addresses T1, human N-type Ca channel (Homo sapiens, UniProt Q00975). Nature of the assay: Calcium influx assay (FDSS), KCl depolarization, Fluo8 dye. The assay is classed as cell-based. Further details: host or cells: HEK 293. An outline of the steps: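 HEK293 cells stably expressing the human N-type Ca channel were loaded with Fluo8 and washed in choline-based buffer (pH 7.2, 2 mM CaCl2, 2 mM KCl). Cells were preincubated with serially diluted compound for 15 min in the dark. Ca influx was then recorded by fluorescence after depolarization with 100 mM KCl.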

For assay [4], the target named is T1, human N-type Ca channel. Nature of the assay: Electrophysiological response, QPatch (depolarization -80 mV to +20 mV). On the technique in general: The patch-clamp technique gives a direct electrical read-out from membranes.
Where [5] appears, read: HEK 293 cells expressing human N-type Ca channel, 100 mM KCl, read-out: N Type IC50 Data FDSS.
Setting [6] is: N Type IC50 Data Qpatch Pulse=1, Pulse=1, concentration range 0.01-1 µM.
Where [7] appears, read: N Type IC50 Data Qpatch Pulse=15, Pulse=15, concentration range 0.01-1 µM.
Where [8] appears, read: N Type IC50 Data Qpatch Pulse=1, Pulse=1, concentration range 0.3-10 µM.
Where [9] appears, read: N Type IC50 Data Qpatch Pulse=15, Pulse=15, concentration range 0.3-10 µM.

T1 sequence (Q00975 whole entry): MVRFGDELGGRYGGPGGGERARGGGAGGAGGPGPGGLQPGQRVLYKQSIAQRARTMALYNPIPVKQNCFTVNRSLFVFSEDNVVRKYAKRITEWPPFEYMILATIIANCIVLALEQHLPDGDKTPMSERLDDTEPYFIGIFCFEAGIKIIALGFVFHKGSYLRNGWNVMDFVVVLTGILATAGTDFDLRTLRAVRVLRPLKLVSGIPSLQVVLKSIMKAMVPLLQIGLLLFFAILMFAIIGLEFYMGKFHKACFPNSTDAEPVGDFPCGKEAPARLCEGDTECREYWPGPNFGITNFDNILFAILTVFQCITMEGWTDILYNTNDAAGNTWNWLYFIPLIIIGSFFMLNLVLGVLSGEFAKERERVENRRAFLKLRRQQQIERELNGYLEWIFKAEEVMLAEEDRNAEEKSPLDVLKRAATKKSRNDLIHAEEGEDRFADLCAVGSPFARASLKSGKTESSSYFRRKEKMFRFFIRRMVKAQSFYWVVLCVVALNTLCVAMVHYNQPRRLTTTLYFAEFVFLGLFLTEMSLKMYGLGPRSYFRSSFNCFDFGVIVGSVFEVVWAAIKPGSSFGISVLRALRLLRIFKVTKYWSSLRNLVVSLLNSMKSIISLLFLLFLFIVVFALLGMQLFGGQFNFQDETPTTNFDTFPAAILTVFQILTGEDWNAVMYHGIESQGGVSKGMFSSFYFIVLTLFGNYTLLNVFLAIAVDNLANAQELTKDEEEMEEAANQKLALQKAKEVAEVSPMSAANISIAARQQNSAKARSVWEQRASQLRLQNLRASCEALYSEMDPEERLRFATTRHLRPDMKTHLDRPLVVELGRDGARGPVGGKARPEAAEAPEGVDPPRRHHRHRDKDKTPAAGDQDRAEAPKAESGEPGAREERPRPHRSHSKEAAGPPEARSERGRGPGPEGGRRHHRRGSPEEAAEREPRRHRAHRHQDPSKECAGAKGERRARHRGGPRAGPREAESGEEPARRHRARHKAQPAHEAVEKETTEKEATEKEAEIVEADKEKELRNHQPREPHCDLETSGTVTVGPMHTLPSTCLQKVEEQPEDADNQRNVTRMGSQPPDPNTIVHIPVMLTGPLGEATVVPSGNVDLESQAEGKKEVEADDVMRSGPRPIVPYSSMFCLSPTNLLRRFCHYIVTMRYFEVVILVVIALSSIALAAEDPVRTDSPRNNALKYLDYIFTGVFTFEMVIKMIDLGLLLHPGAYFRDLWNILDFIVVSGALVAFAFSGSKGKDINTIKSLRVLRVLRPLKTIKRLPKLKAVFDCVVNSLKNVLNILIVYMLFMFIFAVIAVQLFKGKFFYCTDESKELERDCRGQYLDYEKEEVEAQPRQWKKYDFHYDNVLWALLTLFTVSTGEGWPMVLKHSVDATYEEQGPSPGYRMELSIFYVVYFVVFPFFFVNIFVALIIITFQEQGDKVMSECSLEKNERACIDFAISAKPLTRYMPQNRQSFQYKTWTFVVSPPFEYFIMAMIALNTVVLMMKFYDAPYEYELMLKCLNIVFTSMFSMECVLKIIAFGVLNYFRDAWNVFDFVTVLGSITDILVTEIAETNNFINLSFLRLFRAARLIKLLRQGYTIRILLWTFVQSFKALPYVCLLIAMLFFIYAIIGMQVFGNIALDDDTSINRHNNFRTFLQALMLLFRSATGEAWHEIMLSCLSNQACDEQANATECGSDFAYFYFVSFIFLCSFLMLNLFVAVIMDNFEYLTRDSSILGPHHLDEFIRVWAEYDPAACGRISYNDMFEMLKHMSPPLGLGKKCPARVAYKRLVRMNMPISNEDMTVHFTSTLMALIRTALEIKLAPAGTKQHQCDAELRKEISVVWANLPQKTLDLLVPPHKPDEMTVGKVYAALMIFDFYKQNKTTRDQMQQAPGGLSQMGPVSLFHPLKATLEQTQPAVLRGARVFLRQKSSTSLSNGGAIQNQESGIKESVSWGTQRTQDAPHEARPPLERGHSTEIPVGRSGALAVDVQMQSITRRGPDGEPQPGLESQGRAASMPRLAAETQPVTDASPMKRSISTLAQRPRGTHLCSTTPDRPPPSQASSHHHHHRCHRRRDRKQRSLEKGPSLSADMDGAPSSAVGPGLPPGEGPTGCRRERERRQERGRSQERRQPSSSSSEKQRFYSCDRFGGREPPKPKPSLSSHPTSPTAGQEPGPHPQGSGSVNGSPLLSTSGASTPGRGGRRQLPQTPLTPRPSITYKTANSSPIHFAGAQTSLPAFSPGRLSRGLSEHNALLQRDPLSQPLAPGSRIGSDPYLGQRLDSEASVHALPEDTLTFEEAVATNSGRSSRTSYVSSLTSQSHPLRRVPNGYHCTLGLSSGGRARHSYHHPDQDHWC
T1 sequence (P54284 whole entry partner): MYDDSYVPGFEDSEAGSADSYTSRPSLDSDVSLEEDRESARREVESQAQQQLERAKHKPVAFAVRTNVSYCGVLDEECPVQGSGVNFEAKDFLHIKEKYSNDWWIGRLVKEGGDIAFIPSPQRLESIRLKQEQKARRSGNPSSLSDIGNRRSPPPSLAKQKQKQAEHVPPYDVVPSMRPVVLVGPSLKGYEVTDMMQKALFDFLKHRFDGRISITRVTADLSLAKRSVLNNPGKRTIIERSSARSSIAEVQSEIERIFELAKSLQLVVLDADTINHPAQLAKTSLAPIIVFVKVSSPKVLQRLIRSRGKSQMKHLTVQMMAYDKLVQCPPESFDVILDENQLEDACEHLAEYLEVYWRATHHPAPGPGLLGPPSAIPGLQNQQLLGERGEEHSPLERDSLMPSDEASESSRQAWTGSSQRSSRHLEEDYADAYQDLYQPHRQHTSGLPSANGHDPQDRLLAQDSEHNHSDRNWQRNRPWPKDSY
T1 sequence (P54289 25-956 partner limits assumed): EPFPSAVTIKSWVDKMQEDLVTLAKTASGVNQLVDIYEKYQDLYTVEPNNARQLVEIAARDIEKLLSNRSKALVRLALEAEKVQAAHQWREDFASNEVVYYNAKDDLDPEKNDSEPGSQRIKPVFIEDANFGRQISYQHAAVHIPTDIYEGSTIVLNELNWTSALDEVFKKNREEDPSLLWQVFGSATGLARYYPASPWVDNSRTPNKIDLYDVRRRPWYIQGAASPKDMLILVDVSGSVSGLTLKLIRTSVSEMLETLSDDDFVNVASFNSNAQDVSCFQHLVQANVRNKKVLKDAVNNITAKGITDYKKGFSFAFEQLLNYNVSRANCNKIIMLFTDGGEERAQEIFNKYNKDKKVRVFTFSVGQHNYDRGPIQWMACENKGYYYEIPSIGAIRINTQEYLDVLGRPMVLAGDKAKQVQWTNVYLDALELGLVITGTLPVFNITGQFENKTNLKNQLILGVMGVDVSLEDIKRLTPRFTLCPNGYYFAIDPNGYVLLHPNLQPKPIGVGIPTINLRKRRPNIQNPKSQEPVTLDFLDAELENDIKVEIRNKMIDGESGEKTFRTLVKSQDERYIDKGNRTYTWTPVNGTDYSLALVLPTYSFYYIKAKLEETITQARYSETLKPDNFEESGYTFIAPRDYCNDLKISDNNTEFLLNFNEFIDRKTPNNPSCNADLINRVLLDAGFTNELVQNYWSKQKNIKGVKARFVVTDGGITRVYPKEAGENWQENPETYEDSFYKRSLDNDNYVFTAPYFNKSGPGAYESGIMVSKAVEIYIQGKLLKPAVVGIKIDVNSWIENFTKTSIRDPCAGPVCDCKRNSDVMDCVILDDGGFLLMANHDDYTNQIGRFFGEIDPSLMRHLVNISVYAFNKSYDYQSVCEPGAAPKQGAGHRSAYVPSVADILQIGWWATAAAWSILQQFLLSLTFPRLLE
T1 sequence (P54289 957-1103 partner limits assumed): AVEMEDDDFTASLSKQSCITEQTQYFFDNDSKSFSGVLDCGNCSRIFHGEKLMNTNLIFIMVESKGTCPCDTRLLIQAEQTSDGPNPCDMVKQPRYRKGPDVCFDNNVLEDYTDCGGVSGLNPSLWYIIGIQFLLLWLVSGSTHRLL

As for `COc1ccccc1-c1nc(C2CC(C)(C)OC(C)(C)C2)cn1-c1ccc(C#N)cc1` [Compound 1, 4-[2-(2-Methoxyphenyl)-4-(2,2,6,6-tetramethyltetrahydro-2H-pyran-4-yl)-1H-imidazol-1-yl]benzonitrile], the “CFA (% Reversal)” value is reported as 19.73±8.25% in assay [1] (Dose 12.5 mg/kg), 37.62±7.17% in assay [1] (Dose 25 mg/kg), 58.8±10.22% in assay [1] (Dose 50 mg/kg) and 75.26±8.96% in assay [1] (Dose 100 mg/kg). In addition, the “SNL(%MPE)” value in assay [2] (Dose 12.5 mg/kg) is recorded as 22.21±7.61%; in assay [2] (Dose 25 mg/kg), 40.9±20.29%; in assay [2] (Dose 100 mg/kg), 75±13.01%. Besides, the IC50 in assay [3] (setting [5]) was 41 nM; in assay [4] (setting [6]), 365 nM; in assay [4] (setting [7]), greater than 1000 nM.
Consider `COc1ncccc1-c1nc(C2CC(C)(C)OC(C)(C)C2)cn1-c1ccc(F)cc1` [Compound 10, 3-(1-(4-fluorophenyl)-4-(2,2,6,6-tetramethyltetrahydro-2H-pyran-4-yl)-1H-imidazol-2-yl)-2-methoxypyridine], for which the “SNL(%MPE)” value is recorded as 12.17±11.24% in assay [2] (Dose 3 mg/kg), 40.53±13.64% in assay [2] (Dose 10 mg/kg), 54.59±13.37% in assay [2] (Dose 30 mg/kg) and 85.45±8.44% in assay [2] (Dose 100 mg/kg). In addition, the IC50 in assay [3] (setting [5]) was 401 nM; in assay [4] (setting [8]), 5920 nM; in assay [4] (setting [9]) it was 1470 nM.
In the case of `COc1ncccc1-c1nc(C2CC(C)(C)OC(C)(C)C2)cn1-c1ccc(Cl)cc1` [Compound 11, 3-(1-(4-chlorophenyl)-4-(2,2,6,6-tetramethyltetrahydro-2H-pyran-4-yl)-1H-imidazol-2-yl)-2-methoxypyridine], the “CFA (% Reversal)” value amounted to 20.97±7.88% in assay [1] (Dose 3 mg/kg), 41.12±5.14% in assay [1] (Dose 10 mg/kg), 55.8±11.32% in assay [1] (Dose 30 mg/kg) and 76.4±3.78% in assay [1] (Dose 60 mg/kg). Also, the “SNL(%MPE)” value was 28.29± 10.84% in assay [2] (Dose 3 mg/kg), 49.01±9.93% in assay [2] (Dose 10 mg/kg), 70.69±10.3% in assay [2] (Dose 30 mg/kg) and 96.18±3.22% in assay [2] (Dose 60 mg/kg). Moreover, the IC50 in assay [3] stood at 82 nM. Besides, the inhibition at 10 µM was found to be 63% in assay [4] (read-out: Qpatch Pulse=1 (percent inhibition)) and 21% in assay [4] (read-out: Qpatch Pulse=15 (percent inhibition)).
In the case of `COc1ccccc1-c1nc(C2CC(C)(C)OC(C)(C)C2)cn1-c1ccc(Cl)cc1` [Compound 38, 1-(4-chlorophenyl)-2-(2-methoxyphenyl)-4-(2,2,6,6-tetramethyltetrahydro-2H-pyran-4-yl)-1H-imidazole], in assay [2] (Dose 50 mg/kg), the “SNL(%MPE)” value is 87.01± 9.25%. The IC50 in assay [3] (setting [5]) stood at 372 nM; in assay [4] (setting [8]) it was 2400 nM; in assay [4] (setting [9]) it was 769 nM.
Consider `CC1(C)CC(c2cn(-c3ccc(Cl)cc3)c(-c3ccc[nH]c3=O)n2)CC(C)(C)O1` [Compound 122, 3-(1-(4-chlorophenyl)-4-(2,2,6,6-tetramethyltetrahydro-2H-pyran-4-yl)-1H-imidazol-2-yl)pyridin-2(1H)-one], for which the IC50 in assay [3] (setting [5]) was 3010 nM; in assay [4] (read-out: N Type IC50 Data Qpatch Pulse=1, Pulse=1, concentration range 0.01-1 µM), greater than 1000 nM; in assay [4] (read-out: N Type IC50 Data Qpatch Pulse=15, Pulse=15, concentration range 0.01-1 µM) it was greater than 1000 nM.
`COc1ccccc1-c1nc(C2CC(C)(C)OC(C)(C)C2)cn1-c1ccc(C#N)c(Cl)c1` [Compound 123, 2-chloro-4-(2-(2-methoxyphenyl)-4-(2,2,6,6-tetramethyltetrahydro-2H-pyran-4-yl)-1H-imidazol-1-yl)benzonitrile]: the values for the 50% inhibitory concentration (IC50) in assay [3] (setting [5]), in assay [4] (setting [6]) and in assay [4] (setting [7]) were 129 nM, 468 nM and greater than 1000 nM, respectively.
For the molecule `COc1ccccc1-c1nc(C2=CC(C)(C)OC(C)(C)C2)cn1-c1ccc(Cl)cc1` [Compound 124, 1-(4-chlorophenyl)-2-(2-methoxyphenyl)-4-(2,2,6,6-tetramethyl-3,6-dihydro-2H-pyran-4-yl)-1H-imidazole], the IC50 in assay [3] (setting [5]) amounted to 103 nM; in assay [4] (setting [8]), 2500 nM; in assay [4] (setting [9]), 1600 nM.
In the case of `COc1ccccc1-c1nc(C2=CC(C)(C)OC(C)(C)C2)cn1-c1ccc(Br)c(F)c1` [Compound 125, 1-(4-bromo-3-fluorophenyl)-2-(2-methoxyphenyl)-4-(2,2,6,6-tetramethyl-3,6-dihydro-2H-pyran-4-yl)-1H-imidazole], the half-maximal inhibitory concentration (IC50) was 313 nM in assay [3] (setting [5]), 2100 nM in assay [4] (setting [8]) and 2300 nM in assay [4] (setting [9]).
